US6214969A, “Luteinizing hormone releasing hormone analogs with cytotoxic moiety” (The Administrators of the Tulane Educational Fund, priority 1993, dated 2001)

Columns and labels:
[1] = molecular target: T1, membrane receptors of human breast cancer cells (LHRH receptors) (Homo sapiens, UniProt P30968); assay: Receptor binding affinity for human breast cancer cell membranes, 125I-[D-Trp]6 LHRH as labelled ligand; conditions: 125I-[D-Trp]6 LHRH ligand, NB = no binding
T1 construct: from tissue
T1 sequence (P30968 1-328): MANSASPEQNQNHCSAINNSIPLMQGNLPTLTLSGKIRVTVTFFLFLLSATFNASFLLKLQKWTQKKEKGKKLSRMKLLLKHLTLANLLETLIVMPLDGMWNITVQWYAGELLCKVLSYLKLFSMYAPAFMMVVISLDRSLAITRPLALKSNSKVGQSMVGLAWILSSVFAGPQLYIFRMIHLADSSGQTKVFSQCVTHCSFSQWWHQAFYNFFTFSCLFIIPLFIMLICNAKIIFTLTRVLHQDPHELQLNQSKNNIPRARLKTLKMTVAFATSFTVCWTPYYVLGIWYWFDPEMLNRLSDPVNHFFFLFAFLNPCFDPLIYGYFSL
Method: Affinity for peptides to human breast cancer cell membranes is determined by using labelled LHRH and [D-Trp^6 ]LHRH. The assay is carried out similarly to that described by T. Kadar et al., Proc. Natl. Acad. Sci. USA, 85, 890-894 (1988) and M. Fekete et al., Endocrinology, 124, 946-955 (1989).
(§1) Table 2 presents the antiovulatory activity and human breast cancer cell membrane receptor binding affinity of the claimed compounds having LHRH-inhibiting properties. The inhibitory action was determined in vivo, in 4-day cycling rats as described [A. Corbin and C. W. Beattie, Endocr. Res. Commun., 2, 1-23 (1975)].

[2] = tested on: MCF-7 human breast cancer cell line; assay: Inhibition of 3H-thymidine incorporation into DNA, MCF-7; type: cell-based
Method: Ability of peptides of Formula I to inhibit incorporation of [^3 H]thymidine into DNA of monolayer cultures the human mammary tumor cell line MCF-7 is assayed as described [V. K. Sondak et al., Cancer Research, 44, 1725-1728 (1984); F. Holzel et al., J. Cancer Res. Clin. Oncol. 109, 217-226 (1985); M. Albert et al., J. Cancer Res. Clin. Oncol. 109, 210-216 (1985)].
(§2) 200,000 cells in 200 μl of […]+2% CFBS were incubated with 1, 5 or 10 μg cytotoxic analogs for 3 hours or 23 hours then 1 μCi ^3 H-thymidine added and incubated an additional 60 min. DNA extracted with 1 N perchloric acid and the radioactivity measured.

[3] = tested on: ovulation in 4-day cycling rats; assay: In vivo antiovulatory activity in 4-day-cycling rats; conditions: 10 μg per rat
Method: This activity of the peptides is determined in 4-day-cycling rats as described [A. Corbin and C. W. Beattie, Endocr. Res. Commun., 2, 1-23 (1975)].
as §1

[4] = tested on: dispersed rat pituitary cells (LH release); assay: LH-releasing activity in superfused rat pituitary cell system; type: cell-based; conditions: Table 1; compared to that produced by 3 nM LH-RH; peptide infused 3 min
Source text: B. Greenstein, Harwood Academic Publishers, London, (1990)].

[5] = tested on: MDA-MB-231 Cell Line; assay: Inhibition of 3H-thymidine incorporation into DNA, MDA-MB-231; type: cell-based, human
Method: as §2

[6] = tested on: T47D Cell line; assay: Inhibition of 3H-thymidine incorporation into DNA, T47D; type: cell-based, human
Method: as §2

[7] = tested on: SkBr-3 Cell line; assay: Inhibition of 3H-thymidine incorporation into DNA, SkBr-3; type: cell-based, human
Method: as §2

[8] = tested on: human mammary cell line MDA-MB-231; conditions: 10 μg dose; cited from earlier work

Ac-D-Nal(2)-D-Phe(4Cl)-D-Pal(3)-Ser-Arg-D-Lys(MTX)-Leu-Arg-Pro-D-Ala-NH. sub.2 [compound 29]
Affinity Constant Ka1 ([1]; Table 2 (antagonists)): 0.44 nM⁻¹
Affinity Constant Ka2 ([1]; Table 2 (antagonists)): 1.04 µM⁻¹
% Inhibition at 24 hrs ([2]; dose 1 μg/ml): 10%
% Inhibition at 24 hrs ([2]; dose 10 μg/ml): 16%
% Ovulation Blocked [3]: 100%

Ac-D-Nal(2)-D-Phe(4Cl)-D-Trp-Ser-Arg-D-Lys(D-Mel)-Leu-Arg-Pro-D-Ala-NH. sub.2 [compound 19]
Affinity Constant Ka2 ([1]; Table 2 (antagonists)): 32.54 µM⁻¹
% Inhibition at 24 hrs ([2]; dose 1 μg/ml): 34%
% Inhibition at 24 hrs ([2]; dose 10 μg/ml): 49%
% Ovulation Blocked [3]: 40%

Ac-D-Nal(2)-D-Phe(4Cl)-D-Trp-Ser-Tyr-D-Lys(D-Mel)-Leu-Arg-Pro-D-Ala-NH. sub.2 [compound 15]
Affinity Constant Ka1 ([1]; Table 2 (antagonists)): 3.58 nM⁻¹
% Ovulation Blocked [3]: 100%

Ac-D-Nal(2)-D-Phe(4Cl)-D-Trp-Ser-Tyr-D-Lys(MTX)-Leu-Arg-Pro-D-Ala-NH2 [compound 18]
Affinity Constant Ka1 ([1]; Table 2 (antagonists)): 3.58 nM⁻¹
Affinity Constant Ka2 ([1]; Table 2 (antagonists)): 1.07 µM⁻¹

pGlu-His-Trp-Ser-Tyr-D-Lys(Glt-DOX)-Leu-Arg-Pro-Gly-NH2 [compound 33]
Relative Activity (LH-releasing activity) [4]: 12
% Inhibition at 4 hrs ([5]; dose 1 μg/ml): 20%
% Inhibition at 24 hrs ([5]; dose 1 μg/ml): 0%
% Inhibition at 4 hrs ([5]; dose 10 μg/ml): 9%
% Inhibition at 24 hrs ([5]; dose 10 μg/ml): 0%
Affinity Constant Ka2 ([1]; Table 1 (agonists)): 14.4 µM⁻¹
% Inhibition at 4 hrs ([6]; dose 1 μg/ml): 32%
% Inhibition at 24 hrs ([6]; dose 1 μg/ml): 11%
% Inhibition at 4 hrs ([6]; dose 10 μg/ml): 44%
% Inhibition at 24 hrs ([6]; dose 10 μg/ml): 10%
% Inhibition at 4 hrs ([2]; dose 1 μg/ml): 19%
% Inhibition at 24 hrs ([2]; dose 1 μg/ml): 0%
% Inhibition at 4 hrs ([2]; dose 5 μg/ml): 34%
% Inhibition at 24 hrs ([2]; dose 5 μg/ml): 61%
% Inhibition at 4 hrs ([7]; dose 1 μg/ml): 27%
% Inhibition at 24 hrs ([7]; dose 1 μg/ml): 0%
% Inhibition at 4 hrs ([7]; dose 10 μg/ml): 24%
% Inhibition at 24 hrs ([7]; dose 10 μg/ml): 14%

pGlu-His-Trp-Ser-Tyr-D-Lys(MTX)-Leu-Arg-Pro-Gly-NH2 [4A]
Affinity Constant Ka1 ([1]; Table 1 (agonists)): 5.42 nM⁻¹
Affinity Constant Ka2 ([1]; Table 1 (agonists)): 1.59 µM⁻¹

pGlu-His-Trp-Ser-Tyr-D-Lys(MTX)-Leu-Arg-Pro-Gly-NH2 [4B]
Affinity Constant Ka1 ([1]; Table 1 (agonists)): 0.63 nM⁻¹

pGlu-His-Trp-Ser-Tyr-D-Lys(MTX)-Leu-Arg-Pro-Gly-NH2 [compound 4]
% Inhibition at 4 hrs ([5]; dose 1 μg/ml): 23%
% Inhibition at 24 hrs ([5]; dose 1 μg/ml): 0%
% Inhibition at 4 hrs ([5]; dose 10 μg/ml): 31%
% Inhibition at 24 hrs ([5]; dose 10 μg/ml): 8%
% Inhibition at 4 hrs ([6]; dose 1 μg/ml): 38%
% Inhibition at 24 hrs ([6]; dose 1 μg/ml): 26%
% Inhibition at 4 hrs ([6]; dose 10 μg/ml): 54%
% Inhibition at 24 hrs ([6]; dose 10 μg/ml): 41%
% Inhibition at 4 hrs ([7]; dose 1 μg/ml): 21%
% Inhibition at 24 hrs ([7]; dose 1 μg/ml): 16%
% Inhibition at 4 hrs ([7]; dose 10 μg/ml): 36%
% Inhibition at 24 hrs ([7]; dose 10 μg/ml): 10%

pGlu-His-Trp-Ser-Tyr-D-Lys[Ahx(MTX)]-Leu-Arg-Pro-Gly-NH2 [compound 34]
Relative Activity (LH-releasing activity) [4]: 6.7
Affinity Constant Ka1 ([1]; Table 1 (agonists)): 4.42 nM⁻¹
% Inhibition at 24 hrs ([2]; dose 1 μg/ml): 16%
% Inhibition at 24 hrs ([2]; dose 10 μg/ml): 21%

pGlu-His-Trp-Ser-Tyr-D-Lys[Ahx-A2 bu(SAL)2 (Cu)]-Leu-Arg-Pro-Gly-NH2
inhibition of [3H]thymidine incorporation into DNA [8]: 87%

pGlu-His-Trp-Ser-Tyr-D-Orn(MTX)-Leu-Arg-Pro-Gly-NH2 [compound 11]
% Inhibition at 4 hrs ([2]; dose 1 μg/ml): 34%
% Inhibition at 24 hrs ([2]; dose 1 μg/ml): 7%
% Inhibition at 4 hrs ([2]; dose 10 μg/ml): 29%
% Inhibition at 24 hrs ([2]; dose 10 μg/ml): 3%
